“And” between values parts separate entries of the source, which are not always exact repeats. Equal entries are not always repeated.
Key:
iAMs = test: H2O2-induced cell death assay in iAMs (Toxilight), also with LY294002
Experimental: Subsequently, H2O2 (100 µM; Merck, H1009) was added and the cells were incubated for 4 h at 37 °C. All wells contained DMSO at a final concentration of 0.9%. […] After incubation at RT for 5 min, luminescence was measured using the Luminoskan Ascent.

ERBB4/ERBB4 = molecular target: T1, ERBB4/ERBB4 (Homo sapiens, UniProt Q15303); test: PathHunter U2OS ERBB4/ERBB4 dimerization assay, 96-well dose-response; type: cell-based; details: for ERBB4/ERBB4 dimerization signal: relative to signal with 0.1 µM NRG1, single biological replicates; for EC50: Fig. 1 panels b, f-l
T1 construct: host or cells: U2OS (osteosarcoma cells), PathHunter engineered line
Experimental: PathHunter U2OS ERBB4/ERBB4 (osteosarcoma cells; Eurofins, 93-0961C3), U2OS ERBB2/ERBB4 (osteosarcoma cells; Eurofins, 493-0960C3), ERBB2/ERBB3 (osteosarcoma cells; Eurofins, 93-1042C3) and ERBB1/ERBB1 (osteosarcoma cells; Eurofins, 93-0989C3) dimerization cell lines were cultured according to the manufacturer’s instructions. Briefly, cells were cultured in Cell Culture Reagent 103 (Eurofins, 92-3103 G) supplemented with 250 µg/mL Hygromycin B (Eurofins, 92-0029) and 500 µg/mL G418 (Eurofins, 92-0030), and were maintained at 37 °C in humidified atmosphere of 5% CO2. HCFs (Innoprot, P10454) were cultured in fibroblast medium (Innoprot, P60108) supplemented with 10% (v/v) fetal bovine serum (FBS, Innoprot), 10% (v/v) fibroblast growth supplement (Innoprot), and 1% (v/v) penicillin/streptomycin solution (Innoprot). iAMs[33] (kindly provided by LUMC) were cultured in Advanced DMEM F-12 (Thermo Fisher Scientific, 12634028) supplemented with 2% (v/v) heat-inactivated FBS (Thermo Fisher Scientific, 10270106), 1% (v/v) penicillin/streptomycin (10,000 units/mL and 10 mg/mL respectively, Thermo Fisher Scientific, 15140122), 1× GlutaMAX (Thermo Fisher Scientific, 35050061), and 100 ng/mL doxycycline (Tocris, 4090) for proliferation. To induce differentiation, iAMs were transferred to medium without doxycycline.
U2OS ERBB4/ERBB4 dimerization cells were seeded at a density of 5 × 10^4 cells/well in 100 µL Cell Plating 0 Reagent, in white 96-well plates (PerkinElmer, 6005680) and incubated for 24 h at 37 °C, 5% CO2. […] Next, 110 µL PathHunter Flash Detection Reagent was added to each well and incubated at RT for 1 h after which the luminescence signal was measured using the Luminoskan Ascent (Thermo Fisher Scientific). […] The same experimental set-up was used for the U2OS ERBB2/ERBB4, U2OS ERBB2/ERBB3 and U2OS ERBB1/ERBB1 dimerization cell lines.
Category Parameter Description
Assay Type of assay PathHunter Dimerization assays provide a robust, highly sensitive and easy-to-use cell-based functional assay to study various protein activities in a cell. The assay s use
Enzyme Fragment Complementation technology, where the b-galactosidase (b-gal) enzyme is split into two fragments, ProLink and Enzyme Acceptor. Independently these fragments have no b-gal activity. However, when forced to complement through protein-protein interactions, they form an active b-gal enzyme. The PathHunter Dimerization assay detects ligand induced dimerization of two subunits of a receptor-dimer pair. The cells have been engineered to co-express one receptor subunit (ERBB4) fused to Enzyme
Donor, and a second dimer partner (ERBB4) fused to Enzyme Acceptor. Binding of an agonist to one receptor subunit induces it to interact with its dimer partner, forcing complementation of the two enzyme […]
functional enzyme that hydrolyzes a substrate to generate a chemiluminescent signal.
Target ErbB4 receptor (RTK receptor)
Primary measurement Detection of chemiluminescent signal, induced by small-molecule ErbB4 agonists
Key reagents PathHunter Dimerization ErbB4/ErbB4 Cell
Line (93-0961C3) - PathHunter Flash
Detection Kit (03 -0247) - AssayComplete Cell
AssayComplete Cell Detachment Reagent
(92-0009) - AssayComplete Thawing Reagent
T3 (92-4103TR) - AssayComplete Freezing
Assay protocol https://www.discoverx.com/catalog/pathhun

T1 sequence (Q15303 26-1308): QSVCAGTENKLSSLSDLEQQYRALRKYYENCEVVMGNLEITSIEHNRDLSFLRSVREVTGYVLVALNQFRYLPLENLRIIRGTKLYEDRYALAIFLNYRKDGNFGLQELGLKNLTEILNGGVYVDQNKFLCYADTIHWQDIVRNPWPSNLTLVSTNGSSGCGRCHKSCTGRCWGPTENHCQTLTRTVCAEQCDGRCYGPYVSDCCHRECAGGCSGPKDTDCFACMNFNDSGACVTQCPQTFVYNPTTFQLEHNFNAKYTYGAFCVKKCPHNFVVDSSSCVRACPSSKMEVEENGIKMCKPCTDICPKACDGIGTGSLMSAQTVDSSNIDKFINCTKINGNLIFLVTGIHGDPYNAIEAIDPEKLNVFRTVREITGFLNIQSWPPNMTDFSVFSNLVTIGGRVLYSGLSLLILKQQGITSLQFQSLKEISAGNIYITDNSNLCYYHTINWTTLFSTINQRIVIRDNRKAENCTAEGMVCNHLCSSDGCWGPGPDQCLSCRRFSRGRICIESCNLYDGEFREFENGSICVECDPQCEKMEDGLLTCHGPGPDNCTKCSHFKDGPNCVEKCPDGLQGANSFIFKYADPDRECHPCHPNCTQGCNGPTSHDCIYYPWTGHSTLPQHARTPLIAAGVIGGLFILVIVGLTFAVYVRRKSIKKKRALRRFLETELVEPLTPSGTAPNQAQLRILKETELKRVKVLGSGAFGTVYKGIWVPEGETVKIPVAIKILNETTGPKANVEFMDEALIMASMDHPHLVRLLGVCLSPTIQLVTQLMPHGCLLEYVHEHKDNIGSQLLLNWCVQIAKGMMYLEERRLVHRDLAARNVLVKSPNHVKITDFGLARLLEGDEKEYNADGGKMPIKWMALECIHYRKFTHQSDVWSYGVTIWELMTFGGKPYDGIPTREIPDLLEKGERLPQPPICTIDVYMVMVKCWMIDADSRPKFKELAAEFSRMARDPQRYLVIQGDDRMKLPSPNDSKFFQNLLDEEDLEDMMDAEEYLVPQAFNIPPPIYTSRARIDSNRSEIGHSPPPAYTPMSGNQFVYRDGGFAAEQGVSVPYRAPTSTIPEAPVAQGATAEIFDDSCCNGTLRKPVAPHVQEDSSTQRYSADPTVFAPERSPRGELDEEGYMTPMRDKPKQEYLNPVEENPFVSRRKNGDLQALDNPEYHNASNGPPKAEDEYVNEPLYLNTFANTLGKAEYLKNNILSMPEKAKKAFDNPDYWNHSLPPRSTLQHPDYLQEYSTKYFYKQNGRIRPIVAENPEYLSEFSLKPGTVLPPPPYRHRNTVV
T1 sequence (Q15303 26-1308): as above

| SMILES | total cell death of iAMs (iAMs; 100 µM H2O2) [%] | total cell death of iAMs, validation H2O2 (iAMs; H2O2 vs Vehicle, single replicates) | ERBB4/ERBB4 dimerization signal (ERBB4/ERBB4; 3.125e-8 M) | ERBB4/ERBB4 dimerization signal (ERBB4/ERBB4; 6.25e-8 M) | ERBB4/ERBB4 dimerization signal (ERBB4/ERBB4; 1.25e-7 M) | ERBB4/ERBB4 dimerization signal (ERBB4/ERBB4; 2.5e-7 M) | ERBB4/ERBB4 dimerization signal (ERBB4/ERBB4; 5e-7 M) | ERBB4/ERBB4 dimerization signal (ERBB4/ERBB4; 1e-6 M) | ERBB4/ERBB4 dimerization signal (ERBB4/ERBB4; 2e-6 M) | ERBB4/ERBB4 dimerization signal (ERBB4/ERBB4; 4e-6 M) | ERBB4/ERBB4 dimerization signal (ERBB4/ERBB4; 8e-6 M) | ERBB4/ERBB4 dimerization signal (ERBB4/ERBB4; 1.6e-5 M) | ERBB4/ERBB4 dimerization signal (ERBB4/ERBB4; 3.2e-5 M) | EC50 (ERBB4/ERBB4) [µM] | induction of ERBB4 dimerization (in words) (ERBB4/ERBB4) | total cell death of iAMs (iAMs; H2O2/Veh + LY294002 (20 µM), single replicates) | total cell death of iAMs (iAMs; Veh + LY294002 (20 µM), no H2O2, single replicates) | effect of LY294002 pretreatment on pro-survival effect of EF-1 (in words) (iAMs; iAMs treated with H2O2) |
| --- | --- | --- | --- | --- | --- | --- | --- | --- | --- | --- | --- | --- | --- | --- | --- | --- | --- | --- |
| OO [Compound H2O2, hydrogen peroxide, reference compound] | 62 | 48.19 and 54.13 and 68.52 and 60.96 and 64.53 and 71.34 and 65.79 and 69.72 and 69.16 and 66.75 and 64.62 and 50.66 and 53.52 and 64.15 |  |  |  |  |  |  |  |  |  |  |  |  |  |  |  |  |
| CC(=O)c1ccc(NC(=O)C(C)Sc2nc3ccccc3c(=O)n2C2CCCC2)cc1 (stereo not drawn) [EF-2] |  |  | 0 | 2.15 and 4.6 and 0.468 and 1.148 | 3.45 and 2.29 and 0.641 and 1.187 | 4.04 and 4.36 and 1.213 and -1.342 | 1.37 and 3.12 and 2.49 and 0.6545 | 2.5 and 5.02 and 2.238 and 2.209 | 4.33 and 4.8 and 3.759 and 4.682 | 3.95 and 4.91 and 4.578 and 5.322 | 8.72 and 7.12 and 6.167 and 6.988 | 9.4 and 10.69 and 8.539 and 7.868 | 12.78 and 12.75 and 7.517 and 9.504 | 3.3 |  |  |  |  |
| CC(Sc1nc2ccccc2c(=O)n1C1CCCC1)C(=O)N(C)c1ccccc1 (stereo not drawn) [EF-3] |  |  | 0 | -1.21 and 2.4 and -0.0725 | -1.21 and 2.26 and 0.6885 | -1.52 and 3.09 and -0.0015 | -1.8 and 4 and -1.488 | -0.91 and 4.12 and -1.3115 | -2.34 and 4.47 and -0.737 | -2.82 and 3.65 and 0.377 | -2.1 and 3.98 and 3.507 | -0.15 and 7.88 and 11.189 | 10.32 and 12.81 and 17.0765 | 15.9 |  |  |  |  |
| CC(C)n1c(SC(C(=O)NC2CC2)c2ccccc2)nc2sc3c(c2c1=O)CCC3 (stereo not drawn) [EF-4] |  |  | 0 | -0.82 and -1.6 and 0.98 and -1.282 and -1.385 | -1.06 and 0.03 and 3.38 and -1.705 and 1.217 | 0.06 and -1.83 and 3.79 and -0.533 and -0.2429 | 0.37 and -1.62 and 3.34 and -1.138 and -0.1012 | -0.43 and -1.64 and 5.89 and 0.03433 and 4.575 | 0.21 and 0.63 and 6.37 and 2.286 and 6.859 | 2.3 and -0.27 and 8.83 and 5.465 and 8.345 | 3.99 and 2.72 and 14.5 and 12.0003 and 11.0326 | 10.7 (2×) and 28.43 and 14.396 and 16.9022 | 14.22 and 10.37 and 32.96 and 14.248 and 12.7415 | 7.9 |  |  |  |  |
| O=C1NCCCCC1Sc1nc2sc3c(c2c(=O)n1C1CCCC1)CCCC3 (stereo not drawn) [EF-5] |  |  | 0 | 0.55 and -5.82 and -1.2625 and -2.273 | -0.81 and -3.79 and -1.2155 and 0.9982 | 2.18 and -1.68 and -1.408 and 0.7189 | 0.6 and -0.22 and -2.045 and 0.5619 | 1.62 and -1.86 and -1.923 and 1.909 | 0.85 and -0.68 and -0.804 and 3.362 | 1.61 and 5.16 and 4.378 and 4.178 | 4.54 and 3.781 and 4.611 | 16.34 and 17.63 and 4.256 and 4.3885 | 15.88 and 18.62 and 11.2465 and 8.67 | 6.8 | induced ERBB4 dimerization in a concentration-dependent manner |  |  |  |
| Cc1sc2nc(SC(C)C(=O)Nc3sccc3C(N)=O)n(CC(C)C)c(=O)c2c1C (stereo not drawn) [EF-6] |  |  | 0 | -10.54 and 0.126 and -1.899 | -0.74 and -11.14 and 0.573 and -2.081 | -11.05 and 1.316 and 0.08162 | -1.14 and -8.91 and 2.656 and 0.4928 | -7.05 and 2.748 and 1.042 | -1.29 and -3.55 and 2.61 and 5.158 | 3.35 and 5.191 and 6.31 | 7.22 and 8.65 and 7.634 and 6.661 | 15.88 and 10.304 and 5.283 | 10.39 and 15.72 and 13.149 and 5.2549 | 7.4 | induced ERBB4 dimerization in a concentration-dependent manner |  |  |  |
| CC(Sc1nc2ccccc2c(=O)n1C1CCCC1)c1nc2ccccc2n1C(F)F (stereo not drawn) [EF-7] |  |  | 0 | 1.834 and 3.035 and 0.03 and -1.937 | -0.545 and 2.505 and -0.7885 and 2.028 | 4.185 and 4.81 and -0.3825 and 0.1978 | -2.369 and -1.66 and -2.1805 and 0.9417 | -1.082 and -1.615 and -1.204 and 2.348 | -0.26 and -0.926 and -0.8585 and 4.47 | 0.729 and 3.237 and 0.665 and 4.903 | 3.996 and 7.56 and 2.421 and 5.8011 | 6.204 and 12.704 and 5.9735 and 4.731 | 9.166 and 15.395 and 6.6065 and 4.169 | 4.4 | induced ERBB4 dimerization in a concentration-dependent manner |  |  |  |
| Cc1sc2nc(SCC(=O)NC(C)(C#N)C(C)C)n(C3CCCC3)c(=O)c2c1C (stereo not drawn) [EF-8] |  |  | 0 | -2.398 and 2.948 and -2.16 and -2.631 | -3.058 and 0.945 and -1.747 and 1.488 | -2.005 and -2.555 and -0.053 and 1.532 | -2.09 and -2.305 and 2.13 and 0.7408 | -1.274 and -2.984 and 1.804 and 0.1664 | -1.378 and -1.267 and 1.368 and 2.734 | -1.56 and -0.487 and 3.629 and 7.521 | -0.129 and 2.382 and 5.053 and 7.016 | 5.735 and 10.567 and 10.209 and 8.435 | 13.012 and 24.912 and 17.432 | 14 | induced ERBB4 dimerization in a concentration-dependent manner |  |  |  |
| O=c1cc(N2CCOCC2)oc2c(-c3ccccc3)cccc12 [LY294002, reference compound] |  |  |  |  |  |  |  |  |  |  |  |  |  |  |  | 32.812 and 23.1247 and 24.542 and 32.4283 | 4.366 and 3.706 and 3.828 and 4.745 | blocked the pro-survival effect of EF-1 |
